These compounds were tested against T1, human IsK protein (Homo sapiens, UniProt P15382) (assay: Inhibition of IsK current in Xenopus oocytes expressing human IsK protein (two-microelectrode voltage-clamp)). Conditions: human IsK expressed in Xenopus oocytes; activated to -10 mV, 15 s voltage jumps, room temperature; Hill equation.
T1 construct: only IsK injected, pore from oocyte's endogenous KCNQ1; two-microelectrode voltage clamp
Type: cell-based

T1 sequence (P70057 whole entry partner): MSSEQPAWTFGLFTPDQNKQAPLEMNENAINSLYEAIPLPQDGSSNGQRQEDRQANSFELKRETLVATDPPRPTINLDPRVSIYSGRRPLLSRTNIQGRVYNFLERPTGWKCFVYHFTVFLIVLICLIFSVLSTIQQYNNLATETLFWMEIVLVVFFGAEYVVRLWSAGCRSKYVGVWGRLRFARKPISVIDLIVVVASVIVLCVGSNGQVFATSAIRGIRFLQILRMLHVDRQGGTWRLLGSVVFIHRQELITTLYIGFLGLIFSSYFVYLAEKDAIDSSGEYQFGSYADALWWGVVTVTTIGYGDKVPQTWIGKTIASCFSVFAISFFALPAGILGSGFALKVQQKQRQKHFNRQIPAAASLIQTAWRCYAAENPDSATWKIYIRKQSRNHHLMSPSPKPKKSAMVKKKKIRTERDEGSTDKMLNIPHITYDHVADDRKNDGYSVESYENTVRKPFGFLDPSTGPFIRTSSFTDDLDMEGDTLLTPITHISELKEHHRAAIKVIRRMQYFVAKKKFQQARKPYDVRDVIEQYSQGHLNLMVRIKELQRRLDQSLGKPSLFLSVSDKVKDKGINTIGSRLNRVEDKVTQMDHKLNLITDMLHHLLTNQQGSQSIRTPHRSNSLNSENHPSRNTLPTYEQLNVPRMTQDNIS

Compound	IC50
CCN(C1CC(C)(C)Oc2ccc(OCCCCCO)cc21)S(C)(=O)=O (stereo not drawn) [Example 2, N-Ethyl-N-[6-(5-hydroxypentyloxy)-2,2-dimethylchroman-4-yl]methanesulfonamide]	1710 nM
CCN(C1CC(C)(C)Oc2ccc(OCCCCC(=O)NCCOC)cc21)S(C)(=O)=O (stereo not drawn) [Example 3, 5-[4-(Ethylmethanesulfonylamino)-2,2-dimethylchroman-6-yloxy]pentanoic acid (2-methoxyethyl)amide]	6360 nM
CCN(C1CC(C)(C)Oc2ccc(OCCO)cc21)S(C)(=O)=O (stereo not drawn) [Example 8, N-Ethyl-N-[6-(2-hydroxyethoxy)-2,2-dimethylchroman-4-yi]-methanesulfonamide]	7430 nM
CCN(C1CC(C)(C)Oc2ccc(OCc3cc(OC)ccn3)cc21)S(C)(=O)=O (stereo not drawn) [Example 10, N-Ethyl--N-[6-(((4-methoxypyridin-2-yl)methyl)oxy)-2,2-dimethylchroman-4-yl]methanesulfonamide]	~8000 nM
CCOCCOc1ccc2c(c1)C(N(CCOC)S(C)(=O)=O)CC(C)(C)O2 (stereo not drawn) [Example 17, N-[6-(2-Ethoxyethoxy)-2,2-dimethylchroman-4-yl]-N-(2-methoxyethyl)methanesulfonamide]	~1000 nM
CCOCCCOc1ccc2c(c1)C(N(CCOC)S(C)(=O)=O)CC(C)(C)O2 (stereo not drawn) [Example 21, N-[6-(3-Ethoxypropoxy)-2,2-dimethylchroman-4-yl]-N-(2-methoxyethyl)methanesulfonamide]	1740 nM
CCCN(C1CC(C)(C)Oc2ccc(OCC(=O)NCCOC)cc21)S(=O)(=O)CC (stereo not drawn) [Example 22, 2-[4-(Ethanesulfonyl-(1-propyl)amino)-2,2-dimethylchroman-6-yloxy]-N-(2-methoxyethyl)acetamide]	~3000 nM
CCCN(C1CC(C)(C)Oc2ccc(OCC(=O)NCCCOCC)cc21)S(=O)(=O)CC (stereo not drawn) [Example 23, 2-[4-(Ethanesulfonyl-(1-propyl)amino)-2,2-dimethylchroman-6-yloxy]-N-(3-ethoxypropyl)acetamide]	2490 nM

Compounds with a lower IC50, results first:

IC50	Compound
430 nM	CCOCCCOc1ccc2c(c1)C(N(CC)S(C)(=O)=O)CC(C)(C)O2 (stereo not drawn) [Example 1, N-[6-(3-Ethoxypropoxy)-2,2-dimethylchroman-4-yl]-N-ethyl-methanesulfonamide]
690 nM	CCOCCOc1ccc2c(c1)C(N(CC)S(C)(=O)=O)CC(C)(C)O2 (stereo not drawn) [Example 9, N-[6-(2-Ethoxyethoxy)-2,2-dimethylchroman-4-yl]-N-ethylmethanesulfonamide]
320 nM	CCOCCCOc1ccc2c(c1)C(N(C)S(C)(=O)=O)CC(C)(C)O2 (stereo not drawn) [Example 15, N-[6-(3-Ethoxypropoxy)-2,2-dimethylchroman-4-yl]-N-methylmethanesulfonamide]
380 nM	CCS(=O)(=O)N(C)C1CC(C)(C)Oc2ccc(-c3cccs3)cc21 (stereo not drawn) [Example 26, Ethanesulfonic acid (2,2-dimethyl-6-thiophen-2-yl-chroman-4-yl)methylamide]

From patent US6177449A, “Sulfonamide-substituted chromans, processes for their preparation, their use as a medicament or diagnostic, and pharmaceutical preparations comprising them” (Aventis Pharma Deutschland GmbH, priority 1997, dated 2001)
